Data taken from patent US8722929B2, “N-[2-amino-4-(phenylmethoxy)phenyl] amides and related compounds as potassium channel modulators” (Valeant Pharmaceuticals International, priority 2006, dated 2014).
Like-named read-outs stand apart in the source and are kept apart here.

Biological target: T1, KCNQ 2/3 (Rattus norvegicus, UniProt O88943+O88944)
T1 construct: endogenous in cells; host or cells: PC-12 cells differentiated with NGF
Experiment: KCNQ 2/3 activator assay by rubidium (Rb+) efflux from NGF-differentiated PC-12 cells
Format: cell-based
Procedure: Compounds of the following formula were assayed as KCNQ 2/3 activators by measuring rhubidium release.
PC-12 cells were grown at 37° C. and 5% CO2 in DMEM/F12 Medium supplemented with 10% horse serum, 5% fetal bovine serum, 2 mM glutamine, 100 U/ml penicillin, 100 U/ml streptomycin. They were plated in poly-D-lysine-coated 96-well cell culture microplates at a density of 40,000 cells/well and differentiated with 100 ng/ml NGF-7s for 2-5 days. For the assay, the medium was aspirated and the cells were washed once with 0.2 ml in wash buffer (25 mM Hepes, pH 7.4, 150 mM NaCl, 1 mM MgCl2, 0.8 mM NaH2PO4, 2 mM CaCl2). The cells were then loaded with 0.2 ml Rb^+ loading buffer (wash buffer plus 5.4 mM […], 5 mM glucose) and incubated at 37° C. for 2 h. Attached cells were quickly washed three times with buffer (same as Rb^+ loading buffer, but containing 5.4 mM KCl instead of RbCl) to remove extracellular Rb^+. Immediately following the wash, 0.2 ml of depolarization buffer (wash buffer plus 15 mM KCl) with or without compounds was added to the cells to activate efflux of potassium ion channels. After incubation for 10 min at room temperature, the supernatant was carefully removed and collected. Cells were lysed by the addition of 0.2 ml of lysis buffer (depolarization buffer plus 0.1% Triton X-100) and the cell lysates were also collected. If collected samples were not immediately analyzed for Rb^+ contents by atomic absorption spectroscopy (see below), they were stored at 4° C. without any negative effects on subsequent Rb^+ analysis.
The concentration of Rb^+ in the supernatants (Rb^+ sup) and cell lysates (Rb^+Lys) was quantified using an ICR8000 flame atomic absorption spectrometer (Aurora Biomed Inc., Vancouver, B.C.) under conditions defined by the manufacturer. One 0.05 ml samples were processed automatically from microtiter plates by dilution with an equal volume of Rb^+ sample analysis buffer and injection into an air-acetylene flame. The amount of Rb^+ in the sample was measured by absorption at 780 nm using a hollow cathode lamp as light source and a PMT detector. A calibration curve covering the range 0-5 mg/L Rb^+ in sample analysis buffer was generated with each set of plates. The percent Rb^+ efflux (F) was defined by F=[Rb^+Sup/(Rb^+Sup+Rb^+Lys)]×100%
The effect (E) of a compound was defined by: E=[(Fc−Fb)/(Fs−Fb)]×100% where the Fc is the efflux in the presence of compound in depolarization buffer, Fb is the efflux in basal buffer, and Fs is the efflux in depolarization buffer, and Fc is the efflux in the presence of compound in depolarization buffer. The effect (E) and compound concentration relationship was plotted to calculate an EC50 value, a compound's concentration for 50% of maximal Rb^+ efflux.

[1] = Rb+ efflux, PC-12 cells, depolarization buffer 15 mM KCl, 10 min, compounds of formula A, read-out: EC50
[2] = Rb+ efflux, PC-12 cells, depolarization buffer 15 mM KCl, 10 min, compounds of formula B, read-out: EC50

SMILES | EC50 [1] [nM] | EC50 [2] [nM] | also measured
CC(C)(C)CC(=O)Nc1ccc(OCc2ccc(F)cc2)cc1N [I, N-(2-amino-4-(4-fluorobenzyloxy)phenyl)-3,3-dimethylbutanamide] | < 2000 |  | 
CC(C)(C)CC(=O)Nc1ccc(OCc2ccc(F)c(F)c2)cc1N [II, N-(2-amino-4-(3,4-difluorobenzyloxy)phenyl)-3,3-dimethylbutanamide] | < 2000 |  | 
CC(C)(C)CC(=O)Nc1ccc(OCc2ccc(Cl)s2)cc1N [III, N-(2-amino-4-((5-chlorothiophen-2-yl)methoxy)phenyl)-3,3-dimethylbutanamide] | < 2000 |  | 
COC(=O)Nc1ccc(OCc2ccc(F)cc2)cc1N [V, Methyl 2-amino-4-(4-fluorobenzyloxy)phenylcarbamate] |  | < 15000 | 
CCOC(=O)Nc1ccc(NCc2ccc(F)cc2)nc1N [flupirtine] | < 15000 | < 15000 | 
CCOC(=O)Nc1ccc(NCc2ccc(F)cc2)cc1N [retigabine, N-[2-amino-4-(4-fluorobenzylamino)phenyl]carbamic acid, ethyl ester] |  |  | EC50: < 2000 nM; EC50 (Rb+ efflux, PC-12 cells, depolarization buffer 15 mM KCl, 10 min, compounds of formula B): < 2000 nM
